Reference: patent US20260276626A1, “METHOD FOR SCREENING THERAPEUTIC AGENT FOR MUSCLE WEAKNESS-RELATED DISEASES” (ENCELL CO., LTD., priority 2023, published 2026)

Experiments:
Format in all cases: cell-based, mouse
[1] = tested on: C2C12 myotubes; assay: Morphological changes in myotubes by optical microscopic observation
Procedure: (§1) The C2C12 mouse myoblast cell line was cultured in a culture medium containing 90% DMEM/HG, 10% fetal bovine serum (FBS), and 100 unit/ml penicillin/streptomycin at 37° C. under 5% CO2 condition.
(§2) 100,000 cells were seeded in 6-well plate. After 4 days, the medium was replaced with a differentiation medium containing 5% horse serum and 100 unit/ml penicillin/streptomycin, and 95% DMEM/HG for differentiation into myotubes at 100% confluence. Here, the date on which the culture medium was replaced with the differentiation medium was designated as day 0, and the differentiation medium was replaced with fresh differentiation medium every day from day 3 to day 5.
The medium was removed on day 5 to induce muscle atrophy and/or muscle loss, and the culture medium was treated with mitomycin C (hereinafter referred to as MMC) at concentrations of 20 μM, 40 μM, and 100 μM for 24 hours, respectively. An optical microscopic observation was used to identify changes that occurred during the process of muscle atrophy and/or muscle loss. After a predetermined period of time, the medium was removed, and the cells were treated with 0.25% trypsin-ethylene diamine tetra-acetic acid (EDTA, Gibco), and the cells were collected in a culture medium, followed by centrifugation at 1,500 rpm for 3 minutes. […]

[2] = tested on: MuRF-1; assay: MuRF-1 mRNA expression level in myotubes (qPCR); details: 40 μM
Procedure: as §1, §2
(§3) The medium was removed on day 5 to induce muscle atrophy and/or muscle loss, and the culture medium was treated with mitomycin C (hereinafter referred to as MMC) at concentrations of 20 μM, 40 μM, and 100 μM for 24 hours, respectively. An optical microscopic observation was used to identify changes that occurred during the process of muscle atrophy and/or muscle loss. […]
(§4) RNA was extracted from the cells using AccuPrep®Universal RNA Extraction Kit (Bioneer). CDNA was synthesized using SuperScript™ IV Reverse Transcriptase purchased from Invitrogen, and quantitative real-time polymerase chain reaction (qPCR) was performed using PowerSYBR green PCR Master Mix from Applied biosystem to confirm the mRNA expression level. […]

[3] = tested on: Atrogin-1; assay: Atrogin-1 mRNA expression level in myotubes (qPCR); details: 40 μM
Procedure: as §1, §2, §3, §4

[4] = C2C12 myotubes, 24 hours, compared with 20 μM, dexamethasone 100 μM and control (FIG. 5)
[5] = serum-free medium, 24 hours (FIG. 7)

Q: How did the “thickness, length, and number of myotubes” value ([1]; C2C12 myotubes, 40 μM or less, 24-hour treatment, vs untreated control (FIG. 4)) turn out when `CO[C@@]12[C@H](COC(N)=O)C3=C(C(=O)C(C)=C(N)C3=O)N1C[C@@H]1N[C@@H]12` [mitomycin C] was run?
A: significantly reduced

Q: What about the “thickness, length, and number of myotubes” value ([1]; serum-free medium, 40 μM, 24 hours (FIG. 6)) of the same compound?
A: significant decrease

Q: What about the “mRNA expression level of MuRF-1” value [2, 4] of the same compound?
A: the highest

Q: What about the “mRNA expression level of MuRF-1” value [2, 5] of the same compound?
A: maintained in an increased state

Q: And the “mRNA expression level of Atrogin-1” value [3, 4]?
A: the highest

Q: What about the “mRNA expression level of Atrogin-1” value [3, 5] of the same compound?
A: maintained in an increased state
